According to patent publication US20250333782A1 (ILLUMINA, INC., priority 2022, published 2025):
Counter-ions that a name gives are not always drawn.

How the values were obtained:
[1] = test system: human DNA NA12878 treated with human TET2 dioxygenase; assay: caC detection by Illumina sequencing, two-step incubation; details: borane 40 mM or 100 mM, pH 4.3, 40° C. 2.5 hours, quench alpha-ketoglutarate, then 40° C. 18 hours; FIG. 5
Method: A sample of human DNA NA12878 was treated with human TET2 dioxygenase to oxidise mC to caC. The sample was purified by a 1.8×SPRI and resuspended in RSB buffer. 2 M stocks of the amine-boranes were prepared in DMF, then added to the DNA to a final concentration of 40 mM or 100 mM, along with pH 4.3 sodium acetate buffer to a final concentration of 0.5 M. For the one-step protocol, the samples were incubated at 40° C. for 18 hours and 750 rpm shaking. For the two-step protocol, the samples were incubated at 40° C. for 2.5 hours and 750 rpm shaking, then quenched with a 1 M solution of alpha-ketoglutarate at pH 4.3 (to a final concentration of 400 mM) and kept at 40° C. for 18 hours and 750 rpm shaking. After the incubation, all samples underwent a 1.8×SPRI purification after adding 1 M pH 9 TRIS to basify the pH. Libraries were then amplified via PCR using the NEB-Next Enzymatic Methyl-Seq kit's NEB-Next Q5U Master Mix along with NEBNext Multiplex Oligos for Illumina Index primers. A final 0.9×SPRI was performed, before libraries were normalized to 20 pM sequenced on an Illumina NovaSeq (2×151 cycles). The sequencing data was analysed to extract the beta value, which reflects the percentage conversion of 5mC or 5hmC to T.
The percentage caC sites were detected by Illumina sequencing.

[2] = test system: dsDNA (300 bp-500 bp long, containing 4 known caC sites per strand); assay: caC detection of dsDNA by Illumina sequencing, one-step overnight incubation; details: one-step protocol, 100 mM borane, pH 4.3, 40° C., 16 h; expected beta=1; FIG. 4
Method: An aliquot of 2 M borane stock solution in DMF was added to a buffered solution containing calculated amount of dsDNA (300 bp-500 bp long, containing 4 known caC sites per strand), resulting in the final borane concentration of 100 mM and pH of 4.3 (0.5 M NaOAc). The reaction mixture (50 μL) was shaken at 40° C. for 16 h. Then, the samples were purified by 1.8×SPRI (pH adjusted with 1 M Tris buffer pH=9.0). The purified DNA was PCR-amplified using the NEB-Next Enzymatic Methyl-Seq kit's NEB-Next Q5U Master Mix along with IDT-ILMN NextEra UDI Index primers. Finally, 0.9×SPRI purification was performed. The DNA libraries were normalized to 2 nM and 20 pM sequenced on an Illumina NextSeq instrument. The sequencing data was analysed to extract the beta value, which reflects the percentage conversion of caC to T.
The boranes tested included 5-methylthiazole borane VM117, 3-aminopyridine borane (3 AP), 4-methylpyridine-borane (4MeP), 5-(methoxymethyl)-2,4-dimethyl-1,3-thiazole borane (VM293), and 4-hydroxymethylpyridine borane (4HMP). […] The percentage of caC sites were detected by Illumina sequencing.

[3] = test system: 20mer oligodeoxyribonucleotide TTTCAGCTC[5caC]GGTCACGCTC; assay: Reaction kinetics of caC reduction on 20mer, boranes with cationic moieties; details: 20 μM 20mer, 10 mM borane, NaOAc pH 4.3, 25° C.; FIG. 7
Method: (§1) To 45 μL of an aqueous solution of 0.111 mM 5caCpG dimer (0.1 mM final concentration) or 55.6 μM 7mer oligodeoxyribonucleotide (50 μM final concentration, sequence: AT[5caC]GCTA) or 22.2 μM 20mer oligodeoxyribonucleotide (20 μM final concentration, sequence: TTTCAGCTC[5caC]GGTCACGCTC) in 556 mM NaOAc buffer (pH 4.3, 500 mM final concentration) were added 5 μL of a stock solution of the respective borane (100 mM in DMF, 10 mM final concentration) and the reaction was incubated at 25° C. after short vortexing. Aliquots of 8 μL were taken at set time points and were quenched immediately with 4 μL alpha-ketoglutarate monosodium salt (1.0 M in H2O) and analysed by RP-UHPLC for consumption of the caC moiety in the starting material and formation of the product DHU moiety.

[4] = test system: 7mer oligodeoxyribonucleotide AT[5caC]GCTA; assay: Reaction kinetics of caC reduction on 7mer, boranes with cationic moieties; details: 50 μM 7mer, 10 mM borane, NaOAc pH 4.3, 25° C.; FIG. 7
Method: as §1

## [BH3-][n+]1ccc(C)cc1
[1]
  beta values with two-step protocol compared with one-step protocol: consistent with the value obtained with the one-step protocol
[2]
  beta value (percentage of caC sites detected by Illumina sequencing; conversion of caC to T): ~1

## [BH3-][n+]1cccc(N)c1 [3 AP, 3-aminopyridine borane]
[2]
  beta value (percentage of caC sites detected by Illumina sequencing; conversion of caC to T): ~1

## C[N+](C)(C)CC(=O)NCc1ccncc1 [4AMP-Bet, 4-(Betainamidomethyl)pyridine borane (OBt/PF6 salt)]
[3]
  reaction kinetics of consumption of caC on the 20mer: efficient reaction kinetics of consumption of caC
[4]
  reaction kinetics of consumption of caC on the 7mer: efficient reaction kinetics of consumption of caC

## [BH3-][n+]1ccc(CO)cc1 [4HMP, 4-Hydroxymethylpyridine borane]
[2]
  beta value (percentage of caC sites detected by Illumina sequencing; conversion of caC to T): ~1

## B[n+]1csc(C)c1 [VM117, 5-methylthiazole borane]
[1]
  beta values with two-step protocol compared with one-step protocol: consistent with the value obtained with the one-step protocol
[2]
  beta value (percentage of caC sites detected by Illumina sequencing; conversion of caC to T): ~1

## B[n+]1c(C)sc(COC)c1C [VM293, 5-(methoxymethyl)-2,4-dimethyl-1,3-thiazole borane]
[2]
  beta value (percentage of caC sites detected by Illumina sequencing; conversion of caC to T): ~1
